# Experimental data from patent US20220226283A1, “COMBINATION PRODUCT CONTAINING LIMONOID COMPOUND AND DPP-4 INHIBITOR” (ZHEJIANG YANGSHENGTANG INSTITUTE OF NATURAL MEDICATION CO., …, priority 2019, published 2022).
# Tested on: mouse model of type II diabetes with pancreatic islet damage and obesity (ICR mice, STZ and high-fat diet)
# Assay: Blood glucose in mouse type II diabetes model with pancreatic islet damage and obesity (limonoid compound, alogliptin or combination)
# Assay type: in vivo
# Settings: single administration 0.5 g/kg per day by gavage, two weeks, 1 h after the last administration, mean ± SD
# Excerpt: In this example, a mouse model of type II diabetes with pancreatic islet damage and obesity was established by multiple modeling ICR mice with a small dose of streptozotocin (STZ), following with continuous high-fat diets (referring to literature: Zhang Jiyuan et al, Study on the effect of three plant extracts on improving glucose and lipid metabolism in type 2 diabetic mice, Food and Machinery, 2016, 32 (12): 142-147). […]
# Experimental grouping: 15 male mice were randomly selected as the normal control group, and the remaining mice were subjected to a high-fat diet (high-fat diet formula: cholesterol 1%, egg yolk powder 10%, lard oil 10%, and basic feed 79%, for establishing an obesity mouse model) for consecutive 4 weeks and intraperitoneal injection of STZ at a dose of 35 mg/kg for three consecutive days. After one week, the mice were subject to 24 hours of fasting and water deprivation, their fasting blood glucose was measured, and the mice with a blood glucose level of 15 to 25 mmol/L were selected and undifferentiatedly grouped and used in the experiment, continuously subjected to the high-fat diet, 15 mice in each group, and subjected to blood sampling and detection of indicators after 2 weeks of administration. […]
compound,measurement,value
"Cn1c(=O)cc(N2CCC[C@@H](N)C2)n(Cc2ccccc2C#N)c1=O [Alogliptin, alogliptin]",Blood glucose value,14.5 ± 2.8 mmol/L
